Test results published in ChEMBL document CHEMBL4819038, “Structure based design and synthesis of novel Toll-like Receptor 2 (TLR 2) lipid antagonists” (Bioorg Med Chem Lett, 2021).
pIC50: −log10 of the molar value.

Tests used:
[1] = molecular target: T1, Toll-like receptor 2 (Homo sapiens, UniProt O60603); experiment: Antagonist activity at human TLR2 expressed in HEK-Blue cells assessed as inhibition of Pam3CSK4-induced TLR2/TLR1 activation by measuring decrease in NFkappaB activation pretreated for 2 hrs followed by incubation with agonist for 18 hrs by SEAP assay; format: cell-based, HEK-Blue hTLR2
T1 sequence (O60603 whole entry): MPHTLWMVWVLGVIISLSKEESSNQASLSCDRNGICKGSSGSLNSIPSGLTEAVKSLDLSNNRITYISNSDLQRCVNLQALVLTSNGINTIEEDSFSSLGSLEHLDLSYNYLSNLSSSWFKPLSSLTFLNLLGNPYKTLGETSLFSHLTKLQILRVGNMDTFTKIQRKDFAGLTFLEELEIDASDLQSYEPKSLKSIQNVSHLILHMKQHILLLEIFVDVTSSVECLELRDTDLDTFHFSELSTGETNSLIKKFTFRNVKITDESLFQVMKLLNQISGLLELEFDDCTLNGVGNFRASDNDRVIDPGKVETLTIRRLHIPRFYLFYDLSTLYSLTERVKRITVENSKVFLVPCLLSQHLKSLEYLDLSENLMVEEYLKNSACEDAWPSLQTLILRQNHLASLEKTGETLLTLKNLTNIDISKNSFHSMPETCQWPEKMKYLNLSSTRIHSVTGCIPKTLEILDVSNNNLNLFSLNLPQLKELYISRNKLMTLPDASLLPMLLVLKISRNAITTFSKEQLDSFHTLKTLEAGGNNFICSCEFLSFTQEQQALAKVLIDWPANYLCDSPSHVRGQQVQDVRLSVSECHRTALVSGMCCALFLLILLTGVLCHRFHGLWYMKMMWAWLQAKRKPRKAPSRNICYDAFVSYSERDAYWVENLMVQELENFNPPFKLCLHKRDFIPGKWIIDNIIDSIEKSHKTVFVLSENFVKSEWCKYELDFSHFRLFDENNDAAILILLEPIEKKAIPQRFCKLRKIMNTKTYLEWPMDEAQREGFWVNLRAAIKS

[2] = molecular target: T1, Toll-like receptor 2; experiment: Antagonist activity at human TLR2 expressed in HEK-Blue cells assessed as inhibition of Pam2CSK4-induced TLR2/TLR6 activation by measuring decrease in NFkappaB activation pretreated for 2 hrs followed by incubation with agonist for 18 hrs by SEAP assay; format: cell-based, HEK-Blue hTLR2
[3] = Stability of the compound in PBS buffer/EtOH; format: physicochemical
[4] = Stability of the compound in simulated gastric fluid; format: ADME; settings: simulated gi fluid

Compound | pIC50 [1] | pIC50 [2] | Stabilty [3] [h] | Stabilty [4] [h]
CCCCCCCCCCCCCCOCC(CNC(=O)[C@H](CCCCN)NCc1ccc(-c2ccccc2)cc1)OCCCCCCCCCCCCCC (some centres not stated) | 5.55 | 4.55 | – | –
CCCCCCCOC(CNC(=O)[C@H](CCCCN)NCc1ccccc1)COC (some centres not stated) | < 4.52 | < 4.52 | – | –
CCCCCCCOCCNC(=O)[C@H](CCCCN)NCc1ccccc1 | 4.65 | 4.86 | – | –
CCCCCCCCCCCCCCOCC(CNC(=O)[C@H](CCCCN)NC(=O)OCC1c2ccccc2-c2ccccc21)OCCCCCCCCCCCCCC (some centres not stated) | 5.80 | < 4.52 | – | –
CCCCC/C=C\CCCCCCCOCC(CNC(=O)c1cccc(C2CCNCC2)c1)OCCCCCCC/C=C\CCCCC (configuration not stated) | 4.73 | 4.77 | – | –
CCCCCCCCCCCCCCOCC(CNC(=O)CC[C@H](NC(=O)OCC1c2ccccc2-c2ccccc21)C(=O)O)OCCCCCCCCCCCCCC (some centres not stated) | 5.06 | 4.88 | – | –
CCCCC/C=C\C/C=C\CCCCCCCCOCC(CNC(=O)c1cccc(C2CCNCC2)c1)OCCCCCCCC/C=C\C/C=C\CCCCC (configuration not stated) | 5.48 | 4.79 | – | –
CCCCCCCCCCCCCCNC(=O)[C@H](CCCCN)NCc1ccccc1 | 4.84 | 4.95 | – | –

Next, values leading:

pIC50 [1] | pIC50 [2] | Stabilty [3] [h] | Stabilty [4] [h] | Compound
– | – | > 1 | > 1 | CCCCCCCCCCCCCCOCC(CNC(=O)c1cccc(C2CCNCC2)c1)OCCCCCCCCCCCCCC.Cl (configuration not stated)
5.54 | < 4.52 | – | – | CCCCCCCCCCCCCCOCC(CNC(=O)[C@H](CCCCN)NCc1ccc(F)cc1)OCCCCCCCCCCCCCC (some centres not stated)
5.64 | < 4.52 | – | – | CCCCCCCCCCCCCCOCC(CNC(=O)[C@@H](CCCCN)NC(=O)OCc1ccccc1)OCCCCCCCCCCCCCC (some centres not stated)
– | – | > 1 | > 1 | CCCCCCCCCCCCCCOCC(CNC(=O)[C@@H](CCCCN)NCc1ccccc1)OCCCCCCCCCCCCCC.Cl (some centres not stated)
5.59 | < 4.52 | – | – | CCCCCCCCCCCCCCOCC(CNC(=O)C1(NC(=O)OCc2ccccc2)CCNCC1)OCCCCCCCCCCCCCC (configuration not stated)
< 4.70 | < 4.52 | – | – | CCCCCCCCCCCCCCOCC(CNC(=O)CCCCCN)OCCCCCCCCCCCCCC (configuration not stated)
4.84 | < 4.52 | – | – | CCCCCCCCCCCCCCOCC(CNC(=O)[C@H]1CCCN1)OCCCCCCCCCCCCCC (some centres not stated)
5.74 | 4.78 | – | – | CCCCCCCCCCCCCCOCC(CNC(=O)C(CC1CCNCC1)NC(=O)OCC1c2ccccc2-c2ccccc21)OCCCCCCCCCCCCCC (configuration not stated)
